The values that follow come from paper PMC8283790, “Inhibitory Effect of Puroindoline Peptides on Campylobacter jejuni Growth and Biofilm Formation” (Frontiers in Microbiology, 2021).

The test system of data set [1] is MRSA. In kind it is cell-based, Staphylococcus aureus. The conditions noted are these: CLSI broth microdilution, MH broth, 37°C aerobic, 24 h, OD595. The protocol: (§1) C. jejuni clinical strains 81-176 and F38011 were cultured every 24 to 48 h on Mueller-Hinton (MH) agar containing 5% citrated bovine blood (MH-blood agar) or in MH broth in a shaking orbital incubator with microaerobic conditions (5% O2, 10% CO2, 85% N2) at 37°C. The generic isolates of E. coli O157:H7, L. monocytogenes, and Salmonella enterica serovar Typhimurium (S. Typhimurium) were cultured on LB agar plates in an aerobic chamber at 37°C, and methicillin-resistant S. aureus (MRSA) were cultured on an MH-blood agar plate in an aerobic chamber at 37°C.
(§2) Two-fold serial dilutions were made. The bacterial cultures were grown overnight in MH broth under the appropriate conditions, pelleted by centrifugation, and suspended in MH broth at 5 × 10^6 CFU/mL. Ten microliters of bacterial suspension (∼5 × 10^4 bacteria) was used to inoculate every well except the media control wells in 96-well microtiter plate. The plate was incubated in an orbital shaker at 37°C in a microaerobic condition for 48 h for C. jejuni strains or in aerobic conditions for 24 h for other bacteria. After incubation, the optical density was determined using a 96-well plate reader (BioTek Instruments Inc., Winooski, VT, United States) at 595 nm (OD595). […] The dose-response curves were created by log-transforming the OD595 readings. […]
For orientation: In broth dilution the organism is exposed to a series of concentrations in liquid medium.

The subject of data set [2] is S. Typhimurium. In kind it is cell-based, Salmonella enterica serovar Typhimurium. As to conditions: CLSI broth microdilution, MH broth, 37°C aerobic, 24 h, OD595. The protocol:
as §1, §2

Data set [3] deals with E. coli O157:H7. In kind it is cell-based, Escherichia coli. The conditions noted are these: CLSI broth microdilution, MH broth, 37°C aerobic, 24 h, OD595. The protocol: as §1, §2
For data set [4], the system named is L. monocytogenes. The format is cell-based, Listeria monocytogenes. As to conditions: CLSI broth microdilution, MH broth, 37°C aerobic, 24 h, OD595. The protocol: as §1, §2
Data set [5] concerns sheep red blood cells (SRBCs). The experiment in a line: Hemolysis assay. The format is cell-based. The conditions noted are these: ~10^8 cells/mL, 60 min, 37°C, absorbance 540 nm; 100% = 1% Triton X-100. The protocol:
The potential toxicity of the peptides was determined using a hemolysis assay. Briefly, SRBCs (Hardy Diagnostics, Santa Monica, CA, United States) were washed three times with 1× PBS. Aliquots containing approximately 10^8 cells/mL were incubated with different concentrations of the peptides for 60 min at 37°C in a 96-well tray. The plates were then centrifuged, and the absorbance of each supernatant was measured at 540 nm. Zero hemolysis (blank) and 100% hemolysis were determined in phosphate buffer and 1% Triton X-100, respectively.

The test system of data set [6] is C. jejuni strain F38011. Kind of data set: microbe, parasite or virus in culture. In kind it is cell-based, Campylobacter jejuni. The conditions noted are these: for MIC: CLSI broth microdilution, MH broth, ~5 × 10^4 bacteria/well, 37°C microaerobic.
The test system of data set [7] is C. jejuni strain 81-176. The conditions noted are these: C. jejuni 81-176, 48 h; for MIC: CLSI broth microdilution, MH broth, ~5 × 10^4 bacteria/well, 37°C microaerobic, OD595.
Data set [8] concerns red blood cells. The conditions noted are these: ref Capparelli et al. (2007); cited from earlier work. From the text:
(§3) The cytotoxicity and hemolytic activity of PinA has been addressed in this study using human epithelial INT 407 cells and SRBCs. INT 407 cells were chosen for this study as these cells grow rapidly and easy to maintain in culture media. INT 407 cells have been used extensively in C. jejuni research for several decades ([Negretti et al., 2019]). […] The first report on the cytotoxicity of puroindolines was from [Jing et al. (2003)], where th ...

Data set [9] concerns blood. The conditions noted are these: blood hemolysis assay; ref Jing et al. (2003); cited from earlier work.
From the text: as §3

The subject of data set [10] is INT 407 cells. Kind of data set: Lactate dehydrogenase (LDH) cytotoxicity assay. The conditions noted are these: INT 407 cells, 3, 6 and 24 h, MEM without FBS; Triton X-100 at 0.1%. The format is cell-based, human. The protocol:
(§4) The toxicity of the puroindoline peptides was assessed using INT 407 epithelial cells (ATCC CCL-6) and SRBCs, as described below. The INT 407 cells (a derivative of HeLa cells) were cultured in Minimal Essential Medium (MEM) (Gibco, Grand Island, NY, United States) supplemented with 10% fetal bovine serum (FBS) and 1 mM sodium pyruvate at 37°C in humidified condition (5% CO2).
The cytotoxicity of puroindoline peptides on INT 407 cells was monitored using the lactate dehydrogenase (LDH) activity assay kit (Millipore Sigma, Danvers, MA, United States) following the manufacturer’s guidelines. LDH is released from damaged cells into the medium. Briefly, INT 407 cells were seeded into a 96 well plate at a density of 2.5 × 10^4 cells/well in 200 μL growth media (MEM supplemented by 10% FBS) and incubated for 24 h at 37°C in humidified (5% CO2) conditions. The next day, cells were rinsed twice with MEM without FBS, and different concentrations of peptides were added. Cells were incubated for 3 h, 6 h or 24 h at 37°C. As a positive control, 0.1% Triton X-100 was used. Media only was used as a negative control. In the presence of Triton X-100, cells release maximum LDH. After the appropriate incubation point, the tissue culture plate was centrifuged at 2000 rpm for 5 min. […] Absorbance was recorded at 450 nm (OD450) on a BioTek 96-well plate reader.

Data set [11] concerns INT 407 cells. The experiment in a line: MTT cell viability assay. The format is cell-based, human. The protocol: as §4
The viability of INT 407 cells was assessed by MTT assay according to the manufacturer’s recommendations (Roche Diagnostics, Mannheim, Germany). Briefly, INT 407 cells were seeded into a 96-well plate at a density of 2.5 × 10^4 cells/well in 200 μL of growth media (MEM supplemented by 10% FBS) and incubated for 24 h at 37°C under humidified conditions. Cells were rinsed twice with MEM without FBS, and different concentrations of peptides were added into the well. Triton X-100 was added as a positive control and growth medium only was added as a negative control. After treatment, the cells were incubated for different time points (3, 6, or 24 h) at 37°C in a humidified condition. At the end of each experiment, 100 μL of culture medium was removed into a new 96-well plate, and 25 μL of MTT stock solution was added into each well. The plates were incubated for 4 h at 37°C. Then, 100 μL of the solubilizing solution was added to each well, and the plate was incubated overnight at 37°C. After cooling, the plates were read at 570 nm (OD570) on a BioTek 96-well plate reader.
In general terms: Formazan colour is commonly taken as a measure of viable cells.

For data set [12], the system named is C. jejuni 81-176 biofilm. Kind of data set: Biofilm formation, crystal violet staining. The format is cell-based, Campylobacter jejuni. The conditions noted are these: inoculum OD540 0.1, 72 h, 37°C microaerobic, no agitation.
Data set [13] concerns C. jejuni strain 81-176. The experiment in a line: microbe, parasite or virus in culture.

≈ marks a conversion by molar mass, not a printed value. Read-outs that look alike come from different tables or passages of the source. Where a SMILES comes first, the peptide text is derived from it.

Turning to `CSCC[C@H](NC(=O)[C@@H](N)[C@@H](C)O)C(=O)N[C@@H](CCCCN)C(=O)N[C@@H](CC(=O)O)C(=O)N[C@@H](Cc1ccccc1)C(=O)N1CCC[C@H]1C(=O)N[C@H](C(=O)N[C@H](C(=O)N[C@@H](Cc1c[nH]c2ccccc12)C(=O)N[C@@H](CCCNC(=N)N)C(=O)N[C@@H](Cc1c[nH]c2ccccc12)C(=O)NCC(=O)N[C@@H](CCCCN)C(=O)N[C@@H](Cc1c[nH]c2ccccc12)C(=O)NCC(=O)N[C@@H](CCCCN)C(=O)NCC(=O)NCC(=O)O)[C@@H](C)O)C(C)C` [PinA mutant] (H-TMKDFPVTWRWGKWGKGG-OH), the MIC in data set [1] is above 512 µg/mL; in data set [2], above 512 µg/mL; in data set [3], above 512 µg/mL; in [4], above 512 µg/mL; in data set [6] (48 h, OD595) it was above 512 µg/mL; in data set [7] it was above 512 µg/mL. Also, the “Concentration showing hemolysis of SRBCs” value in [5] was at least 256 µg/mL.
For the molecule `CSCC[C@H](NC(=O)[C@@H](N)[C@@H](C)O)C(=O)N[C@@H](CCCCN)C(=O)N[C@@H](CC(=O)O)C(=O)N[C@@H](Cc1ccccc1)C(=O)N1CCC[C@H]1C(=O)N[C@H](C(=O)N[C@H](C(=O)N[C@@H](Cc1c[nH]c2ccccc12)C(=O)N[C@@H](CCCNC(=N)N)C(=O)N[C@@H](Cc1c[nH]c2ccccc12)C(=O)N[C@@H](Cc1c[nH]c2ccccc12)C(=O)N[C@@H](CCCCN)C(=O)N[C@@H](Cc1c[nH]c2ccccc12)C(=O)N[C@@H](Cc1c[nH]c2ccccc12)C(=O)N[C@@H](CCCCN)C(=O)NCC(=O)NCC(=O)O)[C@@H](C)O)C(C)C` [PinA] (H-TMKDFPVTWRWWKWWKGG-OH), the “Concentration up to which no hemolytic activity was displayed” value in [8] is 150 µg/mL. Besides, the “Concentration up to which no hemolytic activity was identified” value in [9] is 1000 µg/mL. For the same molecule, in [10], the “Cytotoxicity (LDH release), in words” value was “cytotoxic to INT 407 cells at higher concentrations”. Moreover, the “Concentration reducing cell viability (MTT, OD570)” value in [11] (INT 407 cells, 24 h) amounted to 256 µg/mL. In addition, the “Concentration showing hemolysis of SRBCs” value in data set [5] was at least 256 µg/mL.
On to `CSCC[C@H](NC(=O)[C@@H](N)[C@@H](C)O)C(=O)N[C@@H](CCCCN)C(=O)N[C@@H](CC(=O)O)C(=O)N[C@@H](Cc1ccccc1)C(=O)N1CCC[C@H]1C(=O)N[C@H](C(=O)N[C@H](C(=O)N[C@@H](Cc1c[nH]c2ccccc12)C(=O)N1CCC[C@H]1C(=O)N[C@H](C(=O)NCC(=O)N[C@@H](Cc1c[nH]c2ccccc12)C(=O)N[C@@H](Cc1c[nH]c2ccccc12)C(=O)NCC(=O)NCC(=O)NCC(=O)O)[C@@H](C)O)[C@@H](C)O)C(C)C` [PinB mutant] (H-TMKDFPVTWPTGWWGGG-OH), for which the MIC was above 512 µg/mL in data set [1]; above 512 µg/mL in data set [2]; above 512 µg/mL in [3]; above 512 µg/mL in data set [4]; above 512 µg/mL in [6] (48 h, OD595); above 512 µg/mL in data set [7]. Besides, the “Concentration showing hemolysis of SRBCs” value in data set [5] was at least 256 µg/mL.
In the case of `CC[C@H]1OC(=O)[C@H](C)[C@@H](O[C@H]2C[C@@](C)(OC)[C@@H](O)[C@H](C)O2)[C@H](C)[C@@H](O[C@@H]2O[C@H](C)C[C@H](N(C)C)[C@H]2O)[C@](C)(O)C[C@@H](C)C(=O)[C@H](C)[C@@H](O)[C@]1(C)O` [erythromycin], the “Concentration inhibiting biofilm formation” value in [12] is at least 0.25 µg/mL. Besides, the MIC in data set [6] (Campylobacter jejuni, 48 h, OD595, read-out: MIC) came out at 0.188 µg/mL (≈ 0.255 µM); in data set [13] (Campylobacter jejuni, 81176, 48 h) it was 0.125 µg/mL (≈ 0.17 µM). In addition, the IC50 in [6] (Campylobacter jejuni, read-out: IC50 (concentration at which 50% of bacteria is inhibited), broth microdilution, 48 h, ten concentration points, min. three biological replicates) stood at 0.0405 µg/mL (≈ 0.0552 µM); in [13] (Campylobacter jejuni, 81176, 48 h, read-out: IC50 (concentration at which 50% of bacteria is inhibited)) it was 0.0415 µg/mL (≈ 0.0565 µM). Also, the IC90 in [6] (Campylobacter jejuni, read-out: IC90 (90% of maximal inhibitory concentration), from slope of concentration-effect curve, 48 h) worked out at 0.0657 µg/mL (≈ 0.0895 µM); in data set [13] (Campylobacter jejuni, 81176, 48 h, read-out: IC90 (90% of maximal inhibitory concentration)), 0.0677 µg/mL (≈ 0.0922 µM). Besides, the MBC in data set [6] (Campylobacter jejuni, wells spotted on MH agar, 24–48 h, no growth (>99.9% reduction)) turned out to be 0.25 µg/mL (≈ 0.341 µM); in data set [13] (Campylobacter jejuni, 81176), 0.125 µg/mL (≈ 0.17 µM). Also, the “IC10 (10% of maximal inhibitory concentration)” value in data set [6] (from slope of concentration-effect curve, 48 h) stood at 0.0249 µg/mL; in [7] (from slope of concentration-effect curve), 0.0254 µg/mL.
For Triton X-100 [reference compound], the “Cell viability (MTT, OD570), in words” value in data set [11] was “very low absorbance at OD570”.
